“And” between values parts separate entries of the source, which are not always exact repeats. Identical values can stand only once.
Test: Effect of temperature on vasopressin formulations: HPLC vasopressin assay and impurities on storage (Example 8)
Format: physicochemical
Protocol: To analyze degradation products of vasopressin that can be present in an illustrative formulation of vasopressin, gradient HPLC was performed to separate vasopressin from related peptides and formulation components. TABLE 2 below depicts the results of the experiment detailing the chemical formula, relative retention time (RRT), molar mass, and structure of vasopressin and detected impurities.
Vasopressin was detected in the eluent using UV absorbance. The concentration of vasopressin in the sample was determined by the external standard method, where the peak area of vasopressin in sample injections was compared to the peak area of vasopressin reference standards in a solution of known concentration. The concentrations of related peptide impurities in the sample were also determined using the external standard method, using the vasopressin reference standard peak area and a unit relative response factor. An impurities marker solution was used to determine the relative retention times of identified related peptides at the time of analysis.
To test the effect of temperature on the stability of vasopressin formulation, solutions containing 20 units/mL vasopressin and chlorobutanol, adjusted to pH 3.5 with acetic acid, were prepared. One mL of each vasopressin formulations was then filled into 3 cc vials. Each Vasopressin Formulation was stored either inverted or upright for at least three months, up to 24 months, at: (i) 5° C.; (ii) 25° C. and 60% relative humidity; or (iii) 40° C. and 75% humidity, and the amount of vasopressin (U/mL) and % total impurities were measured periodically. TABLES 7-12 below display the results of the experiments at 5° C. The results of the experiments at 25° C. are included in TABLES 13-18. All of the experiments were performed in triplicate. The results of the experiments at 40° C. are included in TABLES 19-24. For each temperature tested, three lots of the vasopressin formulation were stored for 24 months (5° C. and 25° C.) and 3 months (40° C.), and measurements were taken at regular intervals during the testing periods. “NMT” as used in the tables denotes “not more than.”
Experiments were also conducted on the same samples above over the course of the experiments to measure the amount of individual impurities in the samples, pH of the samples, chlorobutanol content, particulate matter, antimicrobial effectiveness, and bacterial endotoxin levels (TABLES 25-42). (NR=no reading; ND=not determined; UI=unidentified impurity).

[1] = Upright, 40° C. (75% humidity), 1 month
[2] = Upright, 40° C. (75% humidity), 2 months
[3] = Upright, 40° C. (75% humidity), 3 months
[4] = Upright, 40° C. (75% humidity), Initial
[5] = inverted, 5° C., 1 month, listed as AVP
[6] = inverted, 5° C., 2 months, listed as AVP
[7] = inverted, 5° C., 3 months, listed as AVP
[8] = inverted, 5° C., 6 months, listed as AVP
[9] = inverted, 5° C., 9 months, listed as AVP
[10] = inverted, 5° C., 12 months, listed as AVP
[11] = inverted, 5° C., 18 months, listed as AVP
[12] = inverted, 5° C., 24 months, listed as AVP

## NC(=O)CC[C@@H]1NC(=O)[C@H](Cc2ccccc2)NC(=O)[C@H](Cc2ccc(O)cc2)NC(=O)[C@@H](N)CSSC[C@@H](C(=O)N2CCC[C@H]2C(=O)N[C@@H](CCCN=C(N)N)C(=O)NCC(N)=O)NC(=O)[C@H](CC(N)=O)NC1=O [Vasopressin, Cyclo (1-6) L-Cysteinyl-L-Tyrosyl-L-Phenylalanyl-L-Glutaminyl-L-Asparaginyl-L-Cysteinyl-L-Prolyl-L-Arginyl-L-Glycinamide]
  effect of upright or inverted storage position on stability: did not markedly affect the stability
[1]
  Total Impurities: 3.6% and 3.5%
  Vasopressin Assay: 18.9 U/mL and 19.2 U/mL
[2]
  Total Impurities: 7.2%
  Vasopressin Assay: 18.5 U/mL and 18.7 U/mL and 18.3 U/mL
[3]
  Total Impurities: 10.3%
  Vasopressin Assay: 17.2 U/mL and 17.4 U/mL and 17.5 U/mL
[4]
  Total Impurities: 1.1% and 1.3%
  Vasopressin Assay: 19.8 U/mL and 20.1 U/mL and 19.9 U/mL
inverted, 5° C., 1 month
  Related Substances: Acetyl-AVP: 0.2% and 0.3%
  Related Substances: Asp5-AVP: 0.1%
  Related Substances: SEQ ID NO.: 2: 0.5%
  Related Substances: SEQ ID NO.: 4: 0.6% and 0.5%
  Related Substances: SEQ ID NO.: 10: 0.3%
  Related Substances: UI-0.75-0.78: 0.2%
  Related Substances: UI-0.83-0.84: 0.1%
  Related Substances: UI-1.02-1.03: 0.2%
  Related Substances: UI-1.03: 0.2%
  Vasopressin (AVP) Assay: 19.4 U/mL and 19.7 U/mL
[5]
  Total Impurities: 2.0% and 2.2% and 1.9%
  Vasopressin (AVP) Assay: 19.4 U/mL and 19.7 U/mL
inverted, 5° C., 2 months
  Related Substances: Acetyl-AVP: 0.3%
  Related Substances: Asp5-AVP: 0.1%
  Related Substances: SEQ ID NO.: 2: 0.6% and 0.5%
  Related Substances: SEQ ID NO.: 4: 0.6% and 0.5%
  Related Substances: SEQ ID NO.: 10: 0.3%
  Related Substances: UI-0.75-0.78: 0.2%
  Related Substances: UI-0.83-0.84: 0.1%
  Related Substances: UI-0.84: 0.1%
  Related Substances: UI-1.02-1.03: 0.2%
  Related Substances: UI-1.03: 0.2%
  Related Substances: UI-2.05: 0.1%
  Vasopressin (AVP) Assay: 19.4 U/mL and 19.7 U/mL and 19.6 U/mL
[6]
  Total Impurities: 2.1% and 2.3% and 2.0%
  Vasopressin (AVP) Assay: 19.4 U/mL and 19.7 U/mL and 19.6 U/mL
inverted, 5° C., 3 months
  Related Substances: Acetyl-AVP: 0.3%
  Related Substances: Asp5-AVP: 0.1%
  Related Substances: SEQ ID NO.: 2: 0.6% and 0.5%
  Related Substances: SEQ ID NO.: 4: 0.7% and 0.6%
  Related Substances: SEQ ID NO.: 10: 0.4%
  Related Substances: UI-0.75-0.78: 0.2%
  Related Substances: UI-1.02-1.03: 0.3%
  Related Substances: UI-1.03: 0.3%
  Related Substances: UI-1.76: 0.1%
  Vasopressin (AVP) Assay: 19.3 U/mL and 19.7 U/mL
[7]
  Total Impurities: 2.3% and 2.4% and 2.2%
  Vasopressin (AVP) Assay: 19.3 U/mL and 19.7 U/mL
inverted, 5° C., 6 months
  Related Substances: Acetyl-AVP: 0.2% and 0.3%
  Related Substances: Asp5-AVP: 0.1%
  Related Substances: SEQ ID NO.: 2: 0.6% and 0.5%
  Related Substances: SEQ ID NO.: 4: 0.7% and 0.6%
  Related Substances: SEQ ID NO.: 10: 0.3%
  Related Substances: UI-0.83-0.84: 0.1%
  Related Substances: UI-1.02-1.03: 0.2%
  Related Substances: UI-1.03: 0.2%
  Vasopressin (AVP) Assay: 19.5 U/mL and 19.9 U/mL and 19.8 U/mL
[8]
  Total Impurities: 2.2% and 2.1% and 2.0%
  Vasopressin (AVP) Assay: 19.5 U/mL and 19.9 U/mL and 19.8 U/mL
inverted, 5° C., 9 months
  Related Substances: Acetyl-AVP: 0.2% and 0.3%
  Related Substances: Asp5-AVP: 0.1%
  Related Substances: SEQ ID NO.: 2: 0.6%
  Related Substances: SEQ ID NO.: 4: 0.7%
  Related Substances: SEQ ID NO.: 10: 0.3%
  Related Substances: UI-0.75-0.78: 0.1%
  Related Substances: UI-1.02-1.03: 0.2%
  Related Substances: UI-1.03: 0.2%
  Vasopressin (AVP) Assay: 19.4 U/mL and 19.7 U/mL
[9]
  Total Impurities: 2.3% and 2.1%
  Vasopressin (AVP) Assay: 19.4 U/mL and 19.7 U/mL
inverted, 5° C., 12 months
  Related Substances: Acetyl-AVP: 0.3%
  Related Substances: Asp5-AVP: 0.2% and 0.1%
  Related Substances: SEQ ID NO.: 2: 0.7% and 0.6%
  Related Substances: SEQ ID NO.: 4: 0.8% and 0.7%
  Related Substances: SEQ ID NO.: 10: 0.4%
  Related Substances: UI-0.75-0.78: 0.2%
  Related Substances: UI-1.02-1.03: 0.3%
  Related Substances: UI-1.03: 0.3%
  Vasopressin (AVP) Assay: 19.5 U/mL and 19.8 U/mL and 19.9 U/mL
[10]
  Total Impurities: 2.6% and 2.7% and 2.4%
  Vasopressin (AVP) Assay: 19.5 U/mL and 19.8 U/mL and 19.9 U/mL
inverted, 5° C., 18 months
  Related Substances: Acetyl-AVP: 0.3%
  Related Substances: Asp5-AVP: 0.2%
  Related Substances: SEQ ID NO.: 2: 0.8%
  Related Substances: SEQ ID NO.: 4: 0.9% and 0.8%
  Related Substances: SEQ ID NO.: 10: 0.4%
  Related Substances: UI-0.75-0.78: 0.2%
  Related Substances: UI-1.02-1.03: 0.3%
  Related Substances: UI-1.03: 0.3%
  Vasopressin (AVP) Assay: 19.4 U/mL and 19.7 U/mL and 19.8 U/mL
[11]
  Total Impurities: 2.9% and 2.6%
  Vasopressin (AVP) Assay: 19.4 U/mL and 19.7 U/mL and 19.8 U/mL
inverted, 5° C., 24 months
  Related Substances: Acetyl-AVP: 0.3%
  Related Substances: Asp5-AVP: 0.2%
  Related Substances: SEQ ID NO.: 2: 0.9% and 0.8%
  Related Substances: SEQ ID NO.: 4: 1.0% and 0.9%
  Related Substances: SEQ ID NO.: 10: 0.3%
  Related Substances: UI-0.75-0.78: 0.2%
  Related Substances: UI-0.83-0.84: 0.1%
  Related Substances: UI-1.02-1.03: 0.3% and 0.2%
  Related Substances: UI-1.03: 0.2%
  Related Substances: UI-1.67: 0.2%
  Vasopressin (AVP) Assay: 19.3 U/mL and 19.5 U/mL
[12]
  Total Impurities: 2.9% and 2.8%
  Vasopressin (AVP) Assay: 19.3 U/mL and 19.5 U/mL

Source: patent publication US9968649B2, “Vasopressin formulations for use in treatment of hypotension” (Par Pharmaceutical, Inc., priority 2015, dated 2018)
